According to patent US8835507B2, “Adamantane derivatives possessing anti-viral and anti-microbial activity” (priority 2012, dated 2014):
≈ marks a conversion by molar mass, not a printed value. Where two headings read alike, the source gives them in different places.

What was measured:
[1] = system: Vaccinia virus, WR strain; details: for TC50: toxic concentration in the Vaccinia virus screen; for activity against vaccinia virus (in words): summary of Table 1
anthrax = assay: organism not typed; format: cell-based
E. coli = assay: microbe, parasite or virus in culture; format: cell-based; details: Escherichia coli
plague = assay: organism not typed; format: cell-based
B. anthracis (Ames) = assay: microbe, parasite or virus in culture; format: cell-based; details: Bacillus anthracis
Y. pestis (CO92) = assay: microbe, parasite or virus in culture; format: cell-based; details: Yersinia pestis
B. mallei (ATCC 23344) = assay: microbe, parasite or virus in culture; format: cell-based; details: Burkholderia mallei, ATCC23344
[2] = system: B. pseudomallei (ATCC 23342); assay: microbe, parasite or virus in culture; format: cell-based; details: Burkholderia pseudomallei, ATCC23342
F. tularensis (SCHU4) = assay: microbe, parasite or virus in culture; format: cell-based; details: Francisella tularensis
S. aureus (ATCC 29213) = assay: Test C: MIC against S. aureus (ATCC 29213); format: cell-based; details: Staphylococcus aureus, ATCC29213, CAMHB + IV
E. coli (ATCC 25922) = assay: Test C: MIC against E. coli (ATCC 25922); format: cell-based
[3] = system: P. aeruginosa (ATCC 27853); assay: Test C: MIC against P. aeruginosa (ATCC 27853); format: cell-based; details: Pseudomonas aeruginosa, ATCC27853, P. aeruginosa (ATCC 27853)
[4] = system: Vaccinia virus, WR strain; assay: microbe, parasite or virus in culture; details: Orthopoxvirus vaccinia

Compound: Nc1ccn(C[C@@H](CO)OCP(=O)(O)O)c(=O)n1 [Cidofir, reference compound]
- Comments (activity rating) ([1]; Vaccinia virus, WR strain): Inactive
- TC50 [1]: >100 µg/mL

Compound: C(CNC12CC3CC(CC(C3)C1)C2)NC12CC3CC(CC(C3)C1)C2 [Compound 6]
- MIC (anthrax): 1 to 4 µg/mL (≈ 3.04 to 12.2 µM)
- MIC (E. coli): 4 to 8 µg/mL (≈ 12.2 to 24.3 µM)
- MIC (plague): 4 µg/mL (≈ 12.2 µM)
- MIC (B. anthracis (Ames)): 0.25 µg/mL (≈ 0.761 µM)
- MIC (Y. pestis (CO92)): ≤ 0.06 µg/mL
- MIC (B. mallei (ATCC 23344)): 2 µg/mL (≈ 6.09 µM)
- MIC [2]: 2 µg/mL (≈ 6.09 µM)
- MIC (F. tularensis (SCHU4)): ≤ 0.06 µg/mL
- MIC (S. aureus (ATCC 29213)): 1 µg/mL
- MIC (E. coli (ATCC 25922); CAMHB + IV): ≦0.06 ug/ml
- MIC (E. coli (ATCC 25922); Escherichia coli, ATCC25922, CAMHB, read-out: MIC): ≤ 0.06 µg/mL
- MIC ([3]; CAMHB): 2 µg/mL (≈ 6.09 µM)
- MIC ([3]; CAMHB + IV): 4 µg/mL
- Comments (activity rating) ([1]; Vaccinia virus, WR strain): Active
- activity against vaccinia virus (in words) [1]: moderate to high activity
- TC50 [1]: 5.58 µg/mL (≈ 17 µM)
- IC50 (Tacaribe virus): 6 µg/mL (≈ 18.3 µM)
- IC50 (Pichinde virus): 11 µg/mL (≈ 33.5 µM)
- IC50 [4]: 0.32 µg/mL (≈ 0.974 µM)

Compound: ClN(CCN(Cl)C12CC3CC(CC(C3)C1)C2)C12CC3CC(CC(C3)C1)C2 [Compound 7]
- Comments (activity rating) ([1]; Vaccinia virus, WR strain): Moderate
- activity against vaccinia virus (in words) [1]: moderate to high activity
- TC50 [1]: 63.40 µg/mL (≈ 160 µM)
- IC50 (Tacaribe virus): 17 µg/mL (≈ 42.8 µM)
- IC50 (Pichinde virus): 3.4 µg/mL (≈ 8.55 µM)
- IC50 [4]: 6.37 µg/mL (≈ 16 µM)

Compound: NC(=O)c1ncn([C@@H]2O[C@H](CO)[C@@H](O)[C@H]2O)n1 [Ribivirin, reference compound]
- Comments (activity rating) ([1]; Vaccinia virus, WR strain): Moderate
- IC50 ([1]; Vaccinia virus, WR strain): 27.90 µg/mL (≈ 114 µM)
- TC50 [1]: >100 µg/mL
